Among the data in the Kinase Knowledgebase extract (Sharma et al. 2016) are Ki and Kd values, retold here.

pKd, pKi: −log10 of the molar value.

The target of the assay is MAPK14 (human) (UniProt Q16539). Kind of assay: Enzyme Assay.
Sequence of MAPK14 (human) (Q16539 whole entry, looked up): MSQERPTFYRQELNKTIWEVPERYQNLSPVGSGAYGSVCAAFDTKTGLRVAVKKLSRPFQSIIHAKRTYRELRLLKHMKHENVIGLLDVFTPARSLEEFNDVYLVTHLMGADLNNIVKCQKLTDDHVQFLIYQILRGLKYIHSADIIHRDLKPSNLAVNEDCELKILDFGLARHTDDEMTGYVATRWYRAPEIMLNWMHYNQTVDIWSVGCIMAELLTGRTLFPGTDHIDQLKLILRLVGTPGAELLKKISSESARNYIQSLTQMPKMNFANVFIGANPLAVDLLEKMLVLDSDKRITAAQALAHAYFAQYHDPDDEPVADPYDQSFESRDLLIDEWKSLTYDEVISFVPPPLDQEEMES
For the compound `CC(C)(C)c1cc(NC(=O)Nc2cccc3ccccc23)n(-c2cccc(C(=O)NCCCN3CCOCC3)c2)n1`, the pKi is 6.54.

In the case of `CCN(CCN(C)C)C(=O)c1cccc(-n2nc(C(C)(C)C)cc2NC(=O)Nc2cccc3ccccc23)c1`, the pKi is 6.13. `CC(C)[C@H](CO)CNC(=O)c1cccc(-n2nc(C(C)(C)C)cc2NC(=O)Nc2cccc3ccccc23)c1`: the pKi was 6.33. `CN1CCN(CCNC(=O)c2cccc(-n3nc(C(C)(C)C)cc3NC(=O)Nc3cccc4ccccc34)c2)CC1` showed a pKi of 6.85. `CC(C)(C)c1cc(NC(=O)Nc2cccc3ccccc23)n(-c2cccc(C(=O)NC3CCN(CCN4CCOCC4)CC3)c2)n1` had a pKi of 6.05. For `CC(C)(C)c1cc(NC(=O)Nc2cccc3ccccc23)n(-c2cccc(C(=O)NCCCN3CCCC3)c2)n1`, the pKi was 6.52. With `CC(C)(C)c1cc(NC(=O)Nc2cccc3ccccc23)n(-c2cccc(C(=O)NCCNc3ccccc3)c2)n1`, the pKi is 6.36.

Compound `CC(C)(C)c1cc(NC(=O)Nc2cccc3ccccc23)n(-c2cccc(C(=O)N(CCCN)C3CCCCC3)c2)n1` showed a pKi of 7.05. `CC(C)CC(CNC(=O)c1cccc(-n2nc(C(C)(C)C)cc2NC(=O)Nc2cccc3ccccc23)c1)C(N)=O` (stereo not given): the pKi is 6.10. For `CC(C)(C)c1cc(NC(=O)Nc2cccc3ccccc23)n(-c2cccc(C(=O)NCc3ccncn3)c2)n1`, the pKi is 6.49. `COCCCN1CCC(NC(=O)c2cccc(-n3nc(C(C)(C)C)cc3NC(=O)Nc3cccc4ccccc34)c2)CC1` gave a pKi of 6.47.

As to `CC(C)(C)c1cc(NC(=O)Nc2cccc3ccccc23)n(-c2cccc(C(=O)NCC#N)c2)n1`, the pKd was 7.26 and the pKi is 6.60. As to `CC(C)CN(CCCN)C(=O)c1cccc(-n2nc(C(C)(C)C)cc2NC(=O)Nc2cccc3ccccc23)c1`, the pKi is 6.51. Still for that read-out and setting: to `CC(C)(C)c1cc(NC(=O)Nc2cccc3ccccc23)n(-c2cccc(C(=O)N[C@@H]3CS(=O)(=O)C[C@H]3O)c2)n1` belongs 6.95.
